Assay: Safety and tolerability
Assay type: in vivo, Japanese patients
Details: just after meals, in combination with erlotinib 150 mg QD

## O=C1NC(=O)[C@@H](c2cn3c4c(cccc24)CCC3)[C@@H]1c1c[nH]c2ccccc12 [tivantinib]
Japanese EMs
  Recommended phase II dose (RP2D) of tivantinib: 360 mg BID
Japanese PMs
  Recommended phase II dose (RP2D) of tivantinib: 240 mg BID

Source: publication PMC3844902 (British Journal of Cancer, 2013)
